Source: US20220257727A1, “PHARMACEUTICAL COMPOSITION CONTAINING LYSOZYME AND USE THEREOF” (GUANGZHOU CENTURY CLINICAL RESEARCH., LTD., priority 2019, published 2022)

Columns and labels:
psoriasis [1] = conditions: human, in vivo
Source text: (§1) Psoriasis can be divided into mild, moderate, and severe according to the severity. The severity can be determined by PASI (Psoriasis Area Severity Index) scores. PASI is a set of scoring indicators that are widely used internationally to reflect the severity of psoriasis. In the scoring system, four parts, i.e., the head, upper limbs, torso, and lower limbs, are used for comprehensive scoring according to indicators such as erythema, desquamation, infiltration, and area of involvement. The higher the score, the more severe the condition of psoriasis. The specific scoring rules are well known in the field of medical diagnosis.
(§2) Ineffective: The PASI score of psoriasis after treatment is more than 50% of the score before treatment, namely, PASI after treatment÷PASI before treatment×100%>50%.

psoriasis [2] = experiment: Case studies of patients with drug-resistant psoriasis (PASI score, skin state, recurrence, tolerability)
Source text: as §1, §2

[3] = Example 4, person, tretinoin cream, calcipotriol ointment and other treatments
[4] = Example 4, after tretinoin cream, calcipotriol ointment and other treatments
[5] = Example 6, person, tretinoin cream, calcipotriol ointment, methotrexate tablets and other treatments in the past
[6] = Example 6, after tretinoin cream, calcipotriol ointment, methotrexate tablets and other treatments, severe psoriasis
[7] = Example 7, after secukinumab treatment

Molecule: C=C1/C(=C\C=C2/CCC[C@]3(C)[C@@H]([C@H](C)/C=C/[C@@H](O)C4CC4)CC[C@@H]23)C[C@@H](O)C[C@@H]1O [calcipotriol ointment, calcipotriol]
- skin irritation (psoriasis [1]): severe
- PASI score (psoriasis [2]; Example 3, person, after 1 month of use): 5.3
- PASI improvement vs before treatment (psoriasis [2]; Example 3, after 1 month of use): 10%
- effect of treatment (psoriasis [2]; [3]): healed
- relapse (psoriasis [2]; [4]): relapsed three months after the drug withdrawal
- effect of treatment (psoriasis [2]; [5]): not alleviated
- PASI score (psoriasis [2]; [6]): 13.8

Molecule: CN(Cc1cnc2nc(N)nc(N)c2n1)c1ccc(C(=O)N[C@@H](CCC(=O)O)C(=O)O)cc1 [methotrexate tablets, methotrexate]
- relapse (psoriasis [2]; Example 3, after relief, within two years follow-up): relapsed twice
- effect of treatment (psoriasis [2]; Example 3, taken after lysozyme buccal tablets withdrawal, self-reported): the psoriasis was relieved
- PASI score (psoriasis [2]; Example 4, after oral methotrexate treatment): 9.3
- effect of treatment (psoriasis [2]; Example 4, oral treatment after relapse): the condition was not alleviated
- effect of treatment (psoriasis [2]; [5]): not alleviated
- PASI score (psoriasis [2]; [6]): 13.8

Molecule: CCOC(=O)c1ccc(C#Cc2ccc3c(c2)C(C)(C)CCS3)nc1 [tazarotene cream, tazarotene]
- effect of treatment (psoriasis [2]; Example 5, person, two months of treatment): ineffective

Molecule: CC1=C(/C=C/C(C)=C/C=C/C(C)=C/C(=O)O)C(C)(C)CCC1 [tretinoin cream, tretinoin]
- effect of treatment (psoriasis [2]; [3]): healed
- relapse (psoriasis [2]; [4]): relapsed three months after the drug withdrawal
- effect of treatment (psoriasis [2]; [5]): not alleviated
- PASI score (psoriasis [2]; [6]): 13.8

Molecule: Adalimumab
- PASI decrease (psoriasis [2]; Example 6, after one course of treatment, PASI before 13.8): 32%

Molecule: secukinumab: IL-17 inhibitor
- tolerability (psoriasis [1]): intolerance occurred
- PASI decrease (psoriasis [2]; [7]): 10%
- PASI score (psoriasis [2]; [7]): 8.7
